In publication PMC11188874, “HDAC6 Inhibition Releases HR23B to Activate Proteasomes, Expand the Tumor Immunopeptidome and Amplify T-cell Antimyeloma Activity” (Cancer Research Communications, 2024):
Values joined by “and” are separate entries in the source; they are usually repeats but may differ in a detail not shown here. Equal values may be shown once. Read-outs that look alike come from different tables or passages of the source. One block for each molecule: values may come before it. Peptide text beside a SMILES is read from it. * marks the point of attachment. Cbz = O=C(OCc1ccccc1)*

How the values were obtained:
[1] = system: proteasome ChT-like activity in RPMI-8226 cells; test: Cell-based high-throughput screen of proteasome ChT-like activity (LLVY-R110); parameters: species or system human; conditions: 3 µmol/L, 21 hours, then LLVY-R110 18 hours
[2] = Cell viability, XTT assay; format: cell-based; conditions: human, RPMI-8226 cells, XTT (Fig. 1C, 1D), read-out: cell viability maintained
Experimental: Cell viability was determined using the XTT assay ([23]). Briefly, 50,000 cells were added to 96-well plates in a volume of 250 µL in RPMI media that lacked phenol red. Drugs were added at indicated concentrations and plates incubated under standard conditions for 72 hours. XTT sodium salt tetrazolium reagent (Gold Biotechnology, catalog no. X-200) was diluted in PBS (1 mg/mL) containing phenazine methosulfate (PMS, 7.5 µg/mL). Cells were incubated with the XTT+PMS reagent for 3 hours at 37°C and absorbance was measured at 450 nm using a Molecular Devices i3x Spectramax plate reader.

HDAC10 = target: T1, HDAC10 (Homo sapiens, UniProt Q969S8); test: In vitro biochemical activity assay, HDAC10; conditions: for IC50: 10-dose, 3-fold serial dilution, Data 1-3 are triplicates, substrate Ac-spermidine-AMC
T1 construct: purchased Reaction Biology (Malvern, PA)
T1 sequence (Q969S8 1-669): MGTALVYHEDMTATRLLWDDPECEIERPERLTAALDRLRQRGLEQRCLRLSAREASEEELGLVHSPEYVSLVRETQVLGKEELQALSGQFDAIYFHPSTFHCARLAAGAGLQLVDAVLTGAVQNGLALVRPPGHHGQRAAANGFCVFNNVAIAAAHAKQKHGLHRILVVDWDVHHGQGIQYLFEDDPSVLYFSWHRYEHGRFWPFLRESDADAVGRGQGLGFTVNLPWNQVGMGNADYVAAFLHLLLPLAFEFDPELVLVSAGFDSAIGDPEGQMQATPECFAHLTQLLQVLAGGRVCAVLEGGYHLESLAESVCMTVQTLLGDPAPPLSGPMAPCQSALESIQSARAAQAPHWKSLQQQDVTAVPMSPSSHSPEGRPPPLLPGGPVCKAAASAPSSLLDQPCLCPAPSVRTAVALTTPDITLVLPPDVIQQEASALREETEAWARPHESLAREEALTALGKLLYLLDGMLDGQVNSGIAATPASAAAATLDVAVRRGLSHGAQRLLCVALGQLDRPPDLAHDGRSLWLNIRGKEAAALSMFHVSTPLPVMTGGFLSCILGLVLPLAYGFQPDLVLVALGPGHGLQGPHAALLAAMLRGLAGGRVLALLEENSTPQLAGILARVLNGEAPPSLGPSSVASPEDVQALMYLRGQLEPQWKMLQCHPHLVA

E.G7-Ova cells [3] = test: Quantitation of […]–MHC-I complex by flow cytometry; format: cell-based, mouse; conditions: for increase in presentation of the class I molecule–SIINFEKL complex: normalized to untreated (Fig. 2A)
E.G7-Ova cells [4] = test: B3Z T-cell hybridoma assay, annexin-V/propidium iodide; format: cell-based, mouse; conditions: pretreatment 1 µmol/L 72 hours, E:T 2:1 (Fig. 2C)
E.G7-Ova cells [5] = test: Murine MHC-I immunopeptidome analysis by MS; format: cell-based, mouse; conditions: 1 µmol/L, 72 hours
RPMI-8226 cells = test: Myeloma MHC-I immunopeptidome analysis by MS; format: cell-based, human; conditions: 1 µmol/L
27 cancer cell lines [6] = conditions: 1 µmol/L, 72 hours
27 cancer cell lines [7] = test: Proteasome activity in a panel of cancer cell lines (LLVY-R110); conditions: 1 µmol/L, 72 hours; for Number of Cell Lines: Both Increased: proteasome activity and class I presentation
[8] = system: proteasome ChT-like activity in MMCLs; test: Proteasome ChT-like activity in cultured multiple myeloma cells (LLVY-R110); conditions: for increase in proteasome activity: RPMI-8226 cells, 1 µmol/L, 72 hours (Fig. 1B, 1D); for proteasome activity (in words): MM cells, 1 uM, 72 h (Fig. S14C, S14D)
purified proteasomes = test: Activity of proteasomes purified by conventional methods; format: biochemical
MMCLs = test: pan-HLA-ABC presentation in MMCLs by flow cytometry; format: cell-based, human; conditions: pan-HLA ABC antibody
[9] = RPMI-8226 multiple myeloma cells

SMILES: COc1ccc(C[C@H](NC(=O)[C@H](C)NC(=O)CN2CCOCC2)C(=O)N[C@@H](Cc2ccccc2)C(=O)C2(C)CO2)cc1 (stereo in doubt) [ONX-0914]
Fold-Decrease of proteasome ChT-like activity in the HTS [1]: 4 fold

SMILES: CN1CCc2c(c3ccccc3n2Cc2ccc(C(=O)NO)cc2)C1 [Tubastatin-A]
viability at 16 h, 1 µmol/L [2, 9]: ≥ 75%
effect on HDAC10 biochemical activity (HDAC10; at higher concentrations): inhibited
increase in presentation of the class I molecule–SIINFEKL complex (E.G7-Ova cells [3]): over 3 fold
number of CD8neg/annexin-V+/propidium iodide+ E.G7-Ova cells after coculture with B3Z cells (E.G7-Ova cells [4]): significantly increased
peak area of SIINFEKL compared with untreated (E.G7-Ova cells [5]): 1.5 fold
global peak intensity of peptides (RPMI-8226 cells; 72 hours): approximately 2 fold
Number of Cell Lines: Increased Class I Presentation (27 cancer cell lines [6]): 19 cell lines
Number of Cell Lines: Increased Proteasome Activity (27 cancer cell lines [7]): 17 cell lines
Number of Cell Lines: Both Increased (27 cancer cell lines [7]): 16 cell lines
increase in proteasome activity [8]: ≥ 30%

SMILES: C=C(C)[C@@H]1CC[C@]2(C(=O)O)CC[C@]3(C)[C@H](CC[C@@H]4[C@@]5(C)CC[C@H](O)C(C)(C)[C@@H]5CC[C@]43C)[C@@H]12 [Betulinic acid]
Fold-Increase of proteasome ChT-like activity in the HTS [1]: 1.3 fold

SMILES: OCCN(CCO)c1nc(N2CCCCC2)c2nc(N(CCO)CCO)nc(N3CCCCC3)c2n1 [Dipyridamole]
Fold-Increase of proteasome ChT-like activity in the HTS [1]: 2.0 fold

SMILES: COCCn1c2c([n+](Cc3cnccn3)c1C)C(=O)c1ccccc1C2=O [YM155]
Fold-Decrease of proteasome ChT-like activity in the HTS [1]: 11 fold

SMILES: CNc1ccc2oc(C[C@H]3O[C@@]4(CC[C@H]3C)O[C@H]([C@H](C)C(=O)c3ccc[nH]3)[C@H](C)C[C@H]4C)nc2c1C(=O)O [Calcimycin]
Fold-Decrease of proteasome ChT-like activity in the HTS [1]: 5 fold

SMILES: C/C=C1\NC(=O)[C@H]2CSSCC/C=C/[C@H](CC(=O)N[C@H](C(C)C)C(=O)N2)OC(=O)[C@H](C(C)C)NC1=O [romidepsin]
proteasome activity (in words) [8]: did not significantly increase

SMILES: CCN(CCO)CCCC(C)Nc1ccnc2cc(Cl)ccc12 (centres unmarked) [Hydroxychloroquine]
Fold-Increase of proteasome ChT-like activity in the HTS [1]: 1.2 fold

SMILES: CO[C@H]1C[C@@H]2CC[C@@H](C)[C@@](O)(O2)C(=O)C(=O)N2CCCC[C@H]2C(=O)O[C@H]([C@H](C)C[C@@H]2CC[C@@H](O)[C@H](OC)C2)CC(=O)[C@H](C)/C=C(\C)[C@@H](O)[C@@H](OC)C(=O)[C@H](C)C[C@H](C)/C=C/C=C/C=C/1C [Rapamycin]
Fold-Increase of proteasome ChT-like activity in the HTS [1]: 1.8 fold

SMILES: COc1ccc(-c2ccc3ncc4c(c3c2)n(-c2ccc(N3CCNCC3)c(C(F)(F)F)c2)c(=O)n4C)cn1 [BGT226]
Fold-Decrease of proteasome ChT-like activity in the HTS [1]: 25 fold

SMILES: CN(C)CCc1c[nH]c2ccc(C[C@H]3COC(=O)N3)cc12 [Zolmitriptan]
Fold-Decrease of proteasome ChT-like activity in the HTS [1]: 4 fold

SMILES: Nc1nc2ccc(OC(F)(F)F)cc2s1 [Riluzole]
direct effect on the activity of purified proteasomes (purified proteasomes): did not observe a direct effect

SMILES: O.c1cnc2c(c1)ccc1cccnc12 [1,10-phenanthroline monohydrate]
Fold-Increase of proteasome ChT-like activity in the HTS [1]: 1.3 fold
viability at 16 h, 1 µmol/L [2]: ≥ 75%
increase in proteasome activity [8]: ≥ 30%

SMILES: O=C(CCCCCCC(=O)Nc1ccccc1)NO [vorinostat, suberoylanilide hydroxamic acid]
proteasome activity (in words) [8]: did not significantly increase

SMILES: CC(=O)O[C@H]1CC[C@@]2(C)C(=CC[C@@H]3[C@@H]2CC[C@]2(C)C(c4cccnc4)=CC[C@@H]32)C1 [Abiraterone acetate]
Fold-Increase of proteasome ChT-like activity in the HTS [1]: 1.7 fold
direct effect on the activity of purified proteasomes (purified proteasomes): did not observe a direct effect

IC50 (HDAC10): 4.89 nM
SMILES: Cn1cc(CNCC2CCN(c3ncc(C(=O)NO)cn3)CC2)c2ccccc21 [Quisinostat]

SMILES: CC(C)C[C@H](NC(=O)[C@H](CCc1ccccc1)NC(=O)CN1CCOCC1)C(=O)N[C@@H](Cc1ccccc1)C(=O)N[C@@H](CC(C)C)C(=O)[C@@]1(C)CO1 [Carfilzomib]
Fold-Decrease of proteasome ChT-like activity in the HTS [1]: 54 fold

SMILES: Cc1[nH]c2ccccc2c1CCNCc1ccc(/C=C/C(=O)NO)cc1 [panobinostat]
proteasome activity (in words) [8]: did not significantly increase

SMILES: O=C(CCCCCCNC(=O)c1cnc(N(c2ccccc2)c2ccccc2)nc1)NO [ACY-1215]
viability at 16 h, 1 µmol/L [2, 9]: ≥ 75%
IC50 (HDAC10): 368 nM and 333 nM and 356 nM
increase in presentation of the class I molecule–SIINFEKL complex (E.G7-Ova cells [3]): over 3 fold
number of CD8neg/annexin-V+/propidium iodide+ E.G7-Ova cells after coculture with B3Z cells (E.G7-Ova cells [4]): significantly increased
Number of Cell Lines: Increased Class I Presentation (27 cancer cell lines [6]): 19 cell lines
Number of Cell Lines: Increased Proteasome Activity (27 cancer cell lines [7]): 21 cell lines
Number of Cell Lines: Both Increased (27 cancer cell lines [7]): 18 cell lines
increase in proteasome activity [8]: ≥ 30%

SMILES: CC(C)C[C@@H](C=O)NC(=O)[C@H](CC(C)C)NC(=O)[C@H](CC(C)C)NC(=O)OCc1ccccc1 [MG-132] (Cbz-Leu-Leu-Leu-aldehyde)
Fold-Decrease of proteasome ChT-like activity in the HTS [1]: 16 fold

SMILES: C1=C/COCc2cc(ccc2OCCN2CCCC2)Nc2nccc(n2)-c2cccc(c2)COC/1 [Pacritinib]
Fold-Decrease of proteasome ChT-like activity in the HTS [1]: 5 fold

SMILES: CC(C)C[C@H](NC(=O)[C@@H](NC(=O)c1cccc(-c2ccccc2)n1)[C@@H](C)O)B(O)O [CEP-18770]
Fold-Decrease of proteasome ChT-like activity in the HTS [1]: 4 fold

SMILES: COc1ccccc1CN(C)C(=O)Cn1c(CCC(=O)O)nc2c(Cl)cccc2c1=O [SGC-UBD253N]
SIINFEKL–MHC-I complex presentation (in words) (E.G7-Ova cells [3]): not changed
pan-MHC-I presentation on MMCLs (MMCLs): did not increase

SMILES: COc1ccc(C2CNC(=O)C2)cc1OC1CCCC1 (centres unmarked) [Rolipram]
Fold-Increase of proteasome ChT-like activity in the HTS [1]: 1.3 fold

SMILES: COC[C@H](NC(=O)c1cnc(C)s1)C(=O)N[C@@H](COC)C(=O)N[C@@H](Cc1ccccc1)C(=O)[C@@]1(C)CO1 [ONX-0912]
Fold-Decrease of proteasome ChT-like activity in the HTS [1]: 4 fold

SMILES: O=C(NO)c1cnc(NC2(c3ccccc3)CC2)nc1 [ACY-738]
Fold-Increase of proteasome ChT-like activity in the HTS [1]: 1.6 fold
viability at 16 h, 1 µmol/L [2, 9]: ≥ 75%
increase in presentation of the class I molecule–SIINFEKL complex (E.G7-Ova cells [3]): over 3 fold
number of CD8neg/annexin-V+/propidium iodide+ E.G7-Ova cells after coculture with B3Z cells (E.G7-Ova cells [4]): significantly increased
peak area of SIINFEKL compared with untreated (E.G7-Ova cells [5]): 1.5 fold
number of peptides increased more than 20-fold (RPMI-8226 cells; 72 hours): four
number of peptides with ≥2-fold increase (RPMI-8226 cells; 72 hours, 8,019 peptides detected): 118 peptides
Number of Cell Lines: Increased Class I Presentation (27 cancer cell lines [6]): 23 cell lines
Number of Cell Lines: Increased Proteasome Activity (27 cancer cell lines [7]): 19 cell lines
Number of Cell Lines: Both Increased (27 cancer cell lines [7]): 18 cell lines
increase in proteasome activity [8]: ≥ 30%

SMILES: COC1=C(OC)C(=O)c2ccccc2C1=O [2,3-Dimethoxy-1,4-naphthoquinone]
Fold-Increase of proteasome ChT-like activity in the HTS [1]: 1.2 fold

SMILES: COc1cccc2c1C(=O)c1c(O)c3c(c(O)c1C2=O)C[C@@](O)(C(=O)CO)C[C@@H]3O[C@H]1C[C@H](N)[C@@H](O)[C@H](C)O1 [Epirubicin]
Fold-Decrease of proteasome ChT-like activity in the HTS [1]: 4 fold

SMILES: C=C[C@](C)(O)CC[C@@H]1[C@@]2(C)CCCC(C)(C)[C@@H]2CC[C@@]1(C)O [Sclareol]
Fold-Increase of proteasome ChT-like activity in the HTS [1]: 1.4 fold

SMILES: CN(CCCCCCNc1ccnc2cc(Cl)ccc12)CCCCCCNc1ccnc2cc(Cl)ccc12 [DC-661]
Fold-Increase of proteasome ChT-like activity in the HTS [1]: 1.6 fold
direct effect on the activity of purified proteasomes (purified proteasomes): did not observe a direct effect

SMILES: COc1ccccc1CNC(=O)Cn1c(CCC(=O)O)nc2c(Cl)cccc2c1=O [SGC-UBD253]
SIINFEKL–MHC-I complex presentation (in words) (E.G7-Ova cells [3]): increased
pan-MHC-I presentation on MMCLs (MMCLs): increased pan-MHC-I presentation in a dose-dependent manner

SMILES: CC[C@@H](C(=O)[C@@H](C)[C@@H](O)[C@H](C)[C@@H]1O[C@@H]([C@@H](CC)C(=O)O)CC[C@@H]1C)[C@H]1O[C@]2(C=C[C@@H](O)[C@]3(CC[C@@](C)([C@H]4CC[C@](O)(CC)[C@H](C)O4)O3)O2)[C@H](C)C[C@@H]1C [Salinomycin]
Fold-Increase of proteasome ChT-like activity in the HTS [1]: 2.0 fold
direct effect on the activity of purified proteasomes (purified proteasomes): did not observe a direct effect
